A short description of assay [1]: Antioxidant activity (DPPH, in vitro). To be noted: DPPH 0.2 mM; lactic acid bacteria suspension 1×10^8 CFU/ml; 37° C. 20 min. Type of assay: biochemical. On the procedure:
DPPH (2,2-Diphenyl-1-picrylhydrazyl) was dissolved in ethanol to a concentration of 0.2 mM to prepare DPPH solution. Lactic acid bacteria suspension (1×10^8 CFU/ml) or vitamin C solution (1 g/ml) was added to 0.1 ml of the above DPPH solution and incubated at 37° C. for 20 min. The culture was centrifuged at 3000 rpm for 5 min to obtain a supernatant. The absorbance of the supernatant was then measured at 517 nm and the antioxidant activity of the lactic acid bacteria was calculated.

For assay [2], the system named is BDNF. Description: BDNF expression in SH-SY5Y cells. The conditions noted are these: LPS 200 ng/ml; lactic acid bacteria 1×10^4 CFU/ml; 24 h. Type of assay: cell-based. As to the method: SH-SY5Y cells obtained from the Korean Cell Line Bank were cultured in DMEM medium supplemented with 10% FBS and 1% antibiotics, and dispensed at 2×10^6 cells per well in a 12-well plate. Then, LPS (200 ng/ml) was added to each well along with lactic acid bacteria (1×10^4 CFU/ml) and incubated for 24 h. The cells and supernatants were collected, sonicated and centrifuged, and the amount of BDNF in the supernatant was measured by ELISA kit.

The subject of assay [3] is gut microbiota. Put plainly: LPS production in gut microbiota (ELISA). Type of assay: cell-based. To be noted: human feces culture; lactic acid bacteria 1×10^6 CFU/mL; anaerobic 24 hr. On the procedure: Fresh human feces were suspended in anaerobic medium (GAM, Nissui Pharmaceutical Co., Ltd., Japan) and allowed to stand for 10 min. The supernatant was diluted with 10,000-fold anaerobic medium, 0.05 mL of the dilution was transplanted into 5 mL of freshly made anaerobic medium, and lactic acid bacteria (1×10^6 CFU/mL) were implanted and incubated anaerobically for 24 hr.

The subject of assay [4] is Neuropeptide Y (NPY). Description: Neuropeptide Y (NPY) expression in PC12 phaeochromocytoma cells. To be noted: LPS 200 ng/ml; lactic acid bacteria 1×10^4 CFU/ml; 24 hr. It counts as cell-based. On the procedure:
PC12 cells obtained from the Korean Cell Line Bank were cultured in DMEM medium supplemented with 10% FBS and 1% antibiotics, and dispensed at 1×10^6 cells per well in a 12-well plate. Then, LPS (200 ng/ml) was added to each well along with lactic acid bacteria (1×10^4 CFU/ml) and incubated for 24 hr. The cells and supernatants were collected, sonicated and centrifuged, and the amount of NPY in the supernatant was measured by ELISA kit.

Assay [5] deals with IL-10. Description: IL-10 expression in LPS-treated macrophages (ELISA). Type of assay: cell-based, C57BL/6 mice. To be noted: macrophages treated with lactic acid bacteria and LPS for 24 hours. As to the method: (§1) C57BL/6 mice (male, 6 weeks old, 20-23 g) were subjected to an intraperitoneal injection of 2 ml of sterile 4% thioglycolate solution, and after 96 hours, the mice were anesthetized and injected with 8 ml of RPMI 1640 medium through the peritoneal cavity. Then, after 5-10 minutes, the RPMI medium (macrophages) in the mouse peritoneal cavity was extracted, centrifuged at 1000 g for 10 minutes, and washed again with RPMI 1640 medium twice. Macrophages were seeded in 24-well plates at a count of 0.5×10^6 in each well, and treated with lactic acid bacteria and LPS, an inflammatory response-inducing substance, for 24 hours. TNF-α and IL-10 cytokine expression amount in the culture supernatant was then measured by ELISA Kit.

In assay [6] the test system is TNF-α. Put plainly: TNF-α expression in LPS-treated macrophages (ELISA). It counts as cell-based, C57BL/6 mice. To be noted: macrophages treated with lactic acid bacteria and LPS for 24 hours. As to the method:
as §1

Assay [7] deals with Clostridium difficile. Description: Clostridium difficile proliferation in gut microbiota (PCR). Type of assay: cell-based. To be noted: human feces culture; lactic acid bacteria 1×10^6 CFU/mL; anaerobic 24 hr. On the procedure: Fresh human feces were suspended in anaerobic medium (GAM, Nissui Pharmaceutical Co., Ltd., Japan) and allowed to stand for 10 min. The supernatant was diluted with 10,000-fold anaerobic medium, 0.05 mL of the dilution was transplanted into 5 mL of freshly made anaerobic medium, and lactic acid bacteria (1×10^6 CFU/mL) were implanted and incubated anaerobically for 24 hr. This culture medium was divided into two, one was centrifuged (5000 rpm, 20 minutes), the precipitated DNA was isolated using the QIAamp DNA stool mini kit (Qiagen, Germany), and Clostridium difficile (primer: forward, 5′-[…]-3′ (SEQ ID NO: 4); reverse, 5′-[…]-3′ (SEQ ID NO: 5) was quantified by PCR. The reaction product was first treated at 95° C. for 30 seconds, followed by 42 cycles of 5 seconds at 95° C. and 30 seconds at 72° C. for analysis. In addition, one culture medium was sonicated, centrifuged, and filter-sterilized, and the amount of LPS in the supernatant was measured using an ELISA kit.

For Lactobacillus gasseri NK186, in assay [1], the Antioxidant activity entry was “+ (weakly (+; >20-60%))”. Further, the “SHSY5Y cell Induction of BDNF expression” value in assay [2] was “− (not or less than 20% (−; <20%))”. In assay [3], the “Gut microbiota Inhibition of LPS production” value is “+ (weakly (+; >20-60%))”. The “PC12 cell Induction of NPY expression” value in assay [4] was “− (not or less than 20% (−; <20%))”. Also, in assay [5], the “Macrophage Induction of IL-10 expression” value is “+ (weakly (+; >20-60%))”. In assay [6], the “Macrophage Inhibition of TNF-α expression” value (“Macrophage Inhibition” below) is “+ (weakly (+; >20-60%))”. Also, the “Gut microbiota Inhibition of difficile bacteria proliferation” value in assay [7] is “+ (weakly (+; >20-60%))”.
In the case of Lactobacillus gasseri NK187, the Antioxidant activity entry in assay [1] is “+ (weakly (+; >20-60%))”. Further, in assay [2], the “SHSY5Y cell Induction of BDNF expression” value is listed as “+ (weakly (+; >20-60%))”. Also, the “Gut microbiota Inhibition of LPS production” value in assay [3] is listed as “+ (weakly (+; >20-60%))”. Moreover, the “PC12 cell Induction of NPY expression” value in assay [4] is “− (not or less than 20% (−; <20%))”. Moreover, the “Macrophage Induction of IL-10 expression” value in assay [5] was “− (not or less than 20% (−; <20%))”. Besides, the “Macrophage Inhibition” value in assay [6] is “+ (weakly (+; >20-60%))”. Also, the “Gut microbiota Inhibition of difficile bacteria proliferation” value in assay [7] is on record as “+ (weakly (+; >20-60%))”.
Take Bifidobacterium infantis NK215: the Antioxidant activity entry in assay [1] is “++ (strongly (++; >60-90%))”. Further, in assay [2], the “SHSY5Y cell Induction of BDNF expression” value is “− (not or less than 20% (−; <20%))”. Also, the “Gut microbiota Inhibition of LPS production” value in assay [3] is “+ (weakly (+; >20-60%))”. Also, the “PC12 cell Induction of NPY expression” value in assay [4] is given as “+ (weakly (+; >20-60%))”. Moreover, the “Macrophage Induction of IL-10 expression” value in assay [5] is listed as “+ (weakly (+; >20-60%))”. In addition, in assay [6], the “Macrophage Inhibition” value was “+ (weakly (+; >20-60%))”. Moreover, the “Gut microbiota Inhibition of difficile bacteria proliferation” value in assay [7] was “+ (weakly (+; >20-60%))”.
As to Lactococcus lactis NK208, the Antioxidant activity result in assay [1] is “− (not or less than 20% (−; <20%))”. The “SHSY5Y cell Induction of BDNF expression” value in assay [2] was “+ (weakly (+; >20-60%))”. For the same substance, the “Gut microbiota Inhibition of LPS production” value in assay [3] is “+ (weakly (+; >20-60%))”. Moreover, in assay [4], the “PC12 cell Induction of NPY expression” value is reported as “+ (weakly (+; >20-60%))”. Also, the “Macrophage Induction of IL-10 expression” value in assay [5] is “− (not or less than 20% (−; <20%))”. Moreover, the “Macrophage Inhibition” value in assay [6] is given as “− (not or less than 20% (−; <20%))”. The “Gut microbiota Inhibition of difficile bacteria proliferation” value in assay [7] is “+ (weakly (+; >20-60%))”.
Regarding Lactobacillus sakei NK198, the Antioxidant activity entry in assay [1] is recorded as “++ (strongly (++; >60-90%))”. In addition, the “SHSY5Y cell Induction of BDNF expression” value in assay [2] was “− (not or less than 20% (−; <20%))”. Besides, the “Gut microbiota Inhibition of LPS production” value in assay [3] is “++ (strongly (++; >60-90%))”. In assay [4], the “PC12 cell Induction of NPY expression” value was “+ (weakly (+; >20-60%))”. In addition, in assay [5], the “Macrophage Induction of IL-10 expression” value is listed as “− (not or less than 20% (−; <20%))”. The “Macrophage Inhibition” value in assay [6] is reported as “− (not or less than 20% (−; <20%))”. Moreover, in assay [7], the “Gut microbiota Inhibition of difficile bacteria proliferation” value is reported as “− (not or less than 20% (−; <20%))”.
Regarding Bifidobacterium pseudocatenulatum NK230, the Antioxidant activity entry in assay [1] is “+ (weakly (+; >20-60%))”. Besides, the “SHSY5Y cell Induction of BDNF expression” value in assay [2] is “+ (weakly (+; >20-60%))”. Also, in assay [3], the “Gut microbiota Inhibition of LPS production” value was “+ (weakly (+; >20-60%))”. Moreover, in assay [4], the “PC12 cell Induction of NPY expression” value was “+ (weakly (+; >20-60%))”. In addition, in assay [5], the “Macrophage Induction of IL-10 expression” value was “− (not or less than 20% (−; <20%))”. For the same substance, the “Macrophage Inhibition” value in assay [6] is listed as “− (not or less than 20% (−; <20%))”. Moreover, the “Gut microbiota Inhibition of difficile bacteria proliferation” value in assay [7] is “+ (weakly (+; >20-60%))”.
Lactobacillus rhamnosus NK212: in assay [1], the Antioxidant activity entry was “++ (strongly (++; >60-90%))”. The “SHSY5Y cell Induction of BDNF expression” value in assay [2] is “− (not or less than 20% (−; <20%))”. Besides, the “Gut microbiota Inhibition of LPS production” value in assay [3] is reported as “+ (weakly (+; >20-60%))”. Moreover, the “PC12 cell Induction of NPY expression” value in assay [4] was “− (not or less than 20% (−; <20%))”. In assay [5], the “Macrophage Induction of IL-10 expression” value is listed as “− (not or less than 20% (−; <20%))”. Further, the “Macrophage Inhibition” value in assay [6] is “− (not or less than 20% (−; <20%))”. Besides, the “Gut microbiota Inhibition of difficile bacteria proliferation” value in assay [7] is listed as “− (not or less than 20% (−; <20%))”.

The values are drawn from patent publication US20250009819A1, “NOVEL PROBIOTICS AND USE THEREOF” (PBLBIOLAB CO., LTD., priority 2021, published 2025).
